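Dose response: 5 concentrations. Exposure: 48 h. Format: 96-well plates. Endpoint: linear interpolation; highest concentration if not reached. GI50 marks 50% less growth.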 Active and inactive are the calls of the source. Cut-off read from the data, not from the text of the source: active = GI50 up to about 1.1 µM and inactive = higher.
Experiments:
Test in all cases: growth of human tumour cells (NCI), 48 h
786-0 = test system: 786-0
A498 = test system: A498
A549 = test system: A549
ACHN = test system: ACHN
BT-549 = test system: BT-549
CAKI-1 = test system: CAKI-1
CCRF-CEM = test system: CCRF-CEM
COLO 205 = test system: COLO 205
DU-145 = test system: DU-145
EKVX = test system: EKVX
HCC 2998 = test system: HCC 2998
HCT-116 = test system: HCT-116
HCT-15 = test system: HCT-15
HL-60 = test system: HL-60
HOP-62 = test system: HOP-62
HOP-92 = test system: HOP-92
HT-29 = test system: HT-29
Hs-578T = test system: Hs-578T
IGROV-1 = test system: IGROV-1
K562 = test system: K562
KM12 = test system: KM12
LOX IMVI = test system: LOX IMVI
M14 = test system: M14
MCF7 = test system: MCF7
MDA-MB-231 = test system: MDA-MB-231
MDA-MB-435 = test system: MDA-MB-435
MDA-N = test system: MDA-N
MOLT-4 = test system: MOLT-4
Malme-3M = test system: Malme-3M
NCI-H226 = test system: NCI-H226
NCI-H23 = test system: NCI-H23
NCI-H460 = test system: NCI-H460
NCI-H522 = test system: NCI-H522
NCI/ADR-RES = test system: NCI/ADR-RES
OVCAR-3 = test system: OVCAR-3
OVCAR-4 = test system: OVCAR-4
OVCAR-5 = test system: OVCAR-5
OVCAR-8 = test system: OVCAR-8
PC-3 = test system: PC-3
RPMI-8226 = test system: RPMI-8226
RXF 393 = test system: RXF 393
SF-268 = test system: SF-268
SF-295 = test system: SF-295
SK-MEL-28 = test system: SK-MEL-28
SK-MEL-2 = test system: SK-MEL-2
SK-MEL-5 = test system: SK-MEL-5
SK-OV-3 = test system: SK-OV-3
SN12C = test system: SN12C
SNB-19 = test system: SNB-19
SNB-75 = test system: SNB-75
SW-620 = test system: SW-620
T47D = test system: T47D
TK-10 = test system: TK-10
U-251 = test system: U-251
UACC-257 = test system: UACC-257
UACC-62 = test system: UACC-62
UO-31 = test system: UO-31
SF-539 = test system: SF-539

COC(=O)/C=C\C(C#N)(C#N)/N=C/c1cccs1
GI50 (786-0): 14.2 µM (inactive)
GI50 (A498): 19.9 µM (inactive)
GI50 (A549): 22.6 µM (inactive)
GI50 (ACHN): 1.84 µM (inactive)
GI50 (BT-549): 7.89 µM (inactive)
GI50 (CAKI-1): 1.88 µM (inactive)
GI50 (CCRF-CEM): 0.533 µM (active)
GI50 (COLO 205): 3.68 µM (inactive)
GI50 (DU-145): 10.7 µM (inactive)
GI50 (EKVX): 9.77 µM (inactive)
GI50 (HCC 2998): 18.9 µM (inactive)
GI50 (HCT-116): 8.69 µM (inactive)
GI50 (HCT-15): 2.13 µM
GI50 (HL-60): 1.63 µM (inactive)
GI50 (HOP-62): 17.6 µM (inactive)
GI50 (HOP-92): 1.84 µM (inactive)
GI50 (HT-29): 2 µM (inactive)
GI50 (Hs-578T): 24.8 µM (inactive)
GI50 (IGROV-1): 15.7 µM (inactive)
GI50 (K562): 3.95 µM (inactive)
GI50 (KM12): 17.2 µM (inactive)
GI50 (LOX IMVI): 2.34 µM (inactive)
GI50 (M14): 4.35 µM (inactive)
GI50 (MCF7): 2.01 µM (inactive)
GI50 (MDA-MB-231): 1.46 µM (inactive)
GI50 (MDA-MB-435): 5.16 µM (inactive)
GI50 (MDA-N): 8.22 µM (inactive)
GI50 (MOLT-4): 0.982 µM (active)
GI50 (Malme-3M): 2.65 µM (inactive)
GI50 (NCI-H226): 7.53 µM (inactive)
GI50 (NCI-H23): 9.14 µM (inactive)
GI50 (NCI-H460): 19.6 µM (inactive)
GI50 (NCI-H522): 0.783 µM (active)
GI50 (NCI/ADR-RES): 18.4 µM (inactive)
GI50 (OVCAR-3): 11.1 µM (inactive)
GI50 (OVCAR-4): 5.82 µM (inactive)
GI50 (OVCAR-5): 5.92 µM (inactive)
GI50 (OVCAR-8): 3.76 µM (inactive)
GI50 (PC-3): 13.1 µM (inactive)
GI50 (RPMI-8226): 2.11 µM (inactive)
GI50 (RXF 393): 2.51 µM (inactive)
GI50 (SF-268): 15 µM (inactive)
GI50 (SF-295): 18.8 µM (inactive)
GI50 (SK-MEL-28): 8.83 µM (inactive)
GI50 (SK-MEL-2): 18.5 µM (inactive)
GI50 (SK-MEL-5): 0.813 µM (active)
GI50 (SK-OV-3): 19 µM (inactive)
GI50 (SN12C): 14.7 µM (inactive)
GI50 (SNB-19): 30.8 µM (inactive)
GI50 (SNB-75): 15.3 µM (inactive)
GI50 (SW-620): 1.87 µM (inactive)
GI50 (T47D): 2.93 µM (inactive)
GI50 (TK-10): 1.76 µM (inactive)
GI50 (U-251): 16.6 µM (inactive)
GI50 (UACC-257): 14.4 µM (inactive)
GI50 (UACC-62): 11.6 µM (inactive)
GI50 (UO-31): 2.26 µM (inactive)

COc1ccc(N2C(=O)CC(c3c[nH]c4ncccc34)C2=O)cc1 (stereo unspecified)
GI50 (786-0): 22.3 µM (inactive)
GI50 (A498): 58.5 µM (inactive)
GI50 (A549): > 100 µM (inactive)
GI50 (ACHN): 21.2 µM (inactive)
GI50 (BT-549): 17.5 µM (inactive)
GI50 (CAKI-1): 19.7 µM (inactive)
GI50 (CCRF-CEM): 6.4 µM (inactive)
GI50 (COLO 205): 18.8 µM (inactive)
GI50 (DU-145): > 100 µM (inactive)
GI50 (EKVX): 37.1 µM (inactive)
GI50 (HCC 2998): > 100 µM (inactive)
GI50 (HCT-116): 22.5 µM (inactive)
GI50 (HCT-15): 24.8 µM
GI50 (HL-60): 11.5 µM (inactive)
GI50 (HOP-62): > 100 µM (inactive)
GI50 (HOP-92): 19.7 µM (inactive)
GI50 (HT-29): 19.8 µM (inactive)
GI50 (Hs-578T): > 100 µM (inactive)
GI50 (IGROV-1): 21.3 µM (inactive)
GI50 (K562): 8.09 µM (inactive)
GI50 (KM12): > 100 µM (inactive)
GI50 (LOX IMVI): > 100 µM (inactive)
GI50 (M14): 23 µM (inactive)
GI50 (MCF7): 27.5 µM (inactive)
GI50 (MDA-MB-231): 20 µM (inactive)
GI50 (MDA-MB-435): 14.4 µM (inactive)
GI50 (MDA-N): 14.2 µM (inactive)
GI50 (MOLT-4): > 20.7 µM (inactive)
GI50 (Malme-3M): 22 µM (inactive)
GI50 (NCI-H226): > 100 µM (inactive)
GI50 (NCI-H23): 24.2 µM (inactive)
GI50 (NCI-H460): > 100 µM (inactive)
GI50 (NCI-H522): 7.98 µM (inactive)
GI50 (NCI/ADR-RES): > 53 µM (inactive)
GI50 (OVCAR-3): 20.7 µM (inactive)
GI50 (OVCAR-4): 22.8 µM (inactive)
GI50 (OVCAR-5): 63.2 µM (inactive)
GI50 (OVCAR-8): 19.7 µM (inactive)
GI50 (PC-3): 19.4 µM (inactive)
GI50 (RPMI-8226): > 100 µM (inactive)
GI50 (RXF 393): 23.9 µM (inactive)
GI50 (SF-268): > 100 µM (inactive)
GI50 (SF-295): > 100 µM (inactive)
GI50 (SF-539): > 47.2 µM (inactive)
GI50 (SK-MEL-28): 29 µM (inactive)
GI50 (SK-MEL-2): 36.1 µM (inactive)
GI50 (SK-MEL-5): > 100 µM (inactive)
GI50 (SK-OV-3): > 100 µM (inactive)
GI50 (SN12C): 18.5 µM (inactive)
GI50 (SNB-19): > 100 µM (inactive)
GI50 (SNB-75): > 100 µM (inactive)
GI50 (SW-620): 18.2 µM (inactive)
GI50 (T47D): 24.1 µM (inactive)
GI50 (TK-10): 14.2 µM (inactive)
GI50 (U-251): > 100 µM (inactive)
GI50 (UACC-257): 19.3 µM (inactive)
GI50 (UACC-62): > 50.9 µM (inactive)
GI50 (UO-31): 32.4 µM (inactive)

N#CCCN(CCC#N)c1ccc(/C=C2\N=C(c3ccccc3)N(NC(=O)c3ccncc3)C2=O)cc1
GI50 (786-0): > 100 µM (inactive)
GI50 (A498): > 100 µM (inactive)
GI50 (A549): > 100 µM (inactive)
GI50 (ACHN): > 100 µM (inactive)
GI50 (BT-549): > 100 µM (inactive)
GI50 (COLO 205): > 100 µM (inactive)
GI50 (DU-145): > 100 µM (inactive)
GI50 (EKVX): > 100 µM (inactive)
GI50 (HCT-116): > 100 µM (inactive)
GI50 (HCT-15): > 100 µM
GI50 (HL-60): 36.7 µM (inactive)
GI50 (HOP-62): > 100 µM (inactive)
GI50 (HOP-92): > 100 µM (inactive)
GI50 (HT-29): > 100 µM (inactive)
GI50 (Hs-578T): > 100 µM (inactive)
GI50 (IGROV-1): > 100 µM (inactive)
GI50 (K562): 49.2 µM (inactive)
GI50 (KM12): > 100 µM (inactive)
GI50 (LOX IMVI): > 100 µM (inactive)
GI50 (M14): > 100 µM (inactive)
GI50 (MCF7): > 100 µM (inactive)
GI50 (MDA-MB-231): > 100 µM (inactive)
GI50 (MDA-MB-435): 69.3 µM (inactive)
GI50 (MDA-N): > 100 µM (inactive)
GI50 (MOLT-4): > 100 µM (inactive)
GI50 (NCI-H226): > 100 µM (inactive)
GI50 (NCI-H460): > 100 µM (inactive)
GI50 (NCI/ADR-RES): > 100 µM (inactive)
GI50 (OVCAR-3): > 100 µM (inactive)
GI50 (OVCAR-4): > 100 µM (inactive)
GI50 (OVCAR-5): > 100 µM (inactive)
GI50 (OVCAR-8): > 100 µM (inactive)
GI50 (PC-3): > 100 µM (inactive)
GI50 (RPMI-8226): > 100 µM (inactive)
GI50 (RXF 393): > 100 µM (inactive)
GI50 (SF-268): > 100 µM (inactive)
GI50 (SF-295): > 100 µM (inactive)
GI50 (SF-539): > 100 µM (inactive)
GI50 (SK-MEL-28): > 100 µM (inactive)
GI50 (SK-MEL-2): > 100 µM (inactive)
GI50 (SK-MEL-5): > 100 µM (inactive)
GI50 (SK-OV-3): > 100 µM (inactive)
GI50 (SN12C): > 100 µM (inactive)
GI50 (SNB-19): > 100 µM (inactive)
GI50 (SW-620): > 100 µM (inactive)
GI50 (T47D): > 100 µM (inactive)
GI50 (TK-10): > 100 µM (inactive)
GI50 (U-251): > 100 µM (inactive)
GI50 (UACC-257): > 100 µM (inactive)
GI50 (UACC-62): > 100 µM (inactive)
GI50 (UO-31): > 100 µM (inactive)
